We go through 1 compound from US20230104487A1, “11-(4-CHLOROPHENYL)-4-(2,3-DIHYDRO-1H-INDOLE-1-CARBONYL)-3,11-DIMETHYL-5,10,DIOXATRICYCLO[7.4.0.0,2,6,]TRIDECA-1,3,6,8-TETRAEN-13-ONE AND DERIVATIVES AS DESTABILIZER OF CRY1 FOR THE TREATMENT OF CIRCADIAN RHYTHM ASSOCIATED DISEASES AND DISORDERS” (KOC UNIVERSITESI, priority 2019, published 2023).

The structures appear in SMILES notation. “Also recorded” adds a separate entry of the source.

One data set deals with Per2. Briefly: Per2 mRNA in mouse liver (qPCR). In kind it is in vivo. The following applies: 25 and 50 mg/kg i.p., 6 h. As to the method:
FIGS. 5A-5G are an illustration of FORMULA I decreased the nuclear CRY1 in mice liver. FORMULA I (25 mg/kg or 50 mg/kg) or vehicle intraperitoneally administered to C57BL/6J mice. 6 h after the treated mice were sacrificed (n=3). […] FIGS. 5A-5B show an effect of FORMULA I in WCL. FIG. 5C-5D show an effect of FORMULA I in cytosolic fraction. FIGS. 5E-5F show an effect of FORMULA I in nuclear fraction of muce liver. […] (Data represent the mean±SEM, n=3 (with duplicates in RT-PCR) *: p<0.05 versus control by student t-test).
QIAGEN RNeasy Mini Kit was used to isolate the mRNA. Protocol provided by the manufacturer was followed. On-column DNase treatment was performed with the DNase enzyme provided with the kit. […] Quantity of RNA was determined by Nanodrop 2000 (Thermo Scientific). […] For quantitative real time PCR (qRT-PCR) analysis cDNAs were further diluted 5-fold (1:5). mRNA expression levels were calculated by qRT-PCR with the SYBR Green. […] 10 seconds denaturation, 57 to 62° C. for 20 seconds annealing (the degree is determined by primer type) and 72° C. for 30 seconds of elongation, 35 cycles. […]
Since CRYs are stabilized and degraded differently in cytosolic and nuclear compartments, we further analyzed the level of CRY1 in the cytosolic and nuclear fraction of the mouse liver. […]

For another data set, the system named is U2-OS cells. Briefly: Cell cytotoxicity test (MTT). The format is cell-based, human. Conditions: dose dependent. As to the method: Human osteosarcoma U2-OS cell lines were used for the cytotoxicity assay. Cells were seeded in triplicate to clear 96-well plates with 4000 cells/well then grown for 48 h. Cells were treated with molecules at desired concentrations (final DMSO concentration 0.5%) in DMEM. Cells were incubated with molecules for 48 h. Cell viability was measured by adding tetrazolium dye 3-[4,5-dimethylthiazol-2-yl]-2,5 diphenyl tetrazolium bromide (MTT) which is converted to insoluble purple color formazan as a result of the mitochondrial activity. To measure the purple color after incubating cells with MTT reagent medium was replaced with DMSO:EtOH (50:50) mixture for 4 hours and absorbance of wells were measured at 570 nm by the spectrophotometer. Cells treated with 5% final DMSO concentration (known as toxic to cells) as […] controls.
Initially, toxicity of selected molecules was assessed by MTT using immortalized human osteosarcoma (U2-OS) cells at concentrations of 20 μM, 10 μM and, 2.5 μM. Molecules with relative cell viability less than 90% at 2.5 μM were eliminated. […] In this assay the effect of the 14 molecules were measured according to the CRYL::LUC decay rate. […] Then cells were treated with cycloheximide (CHX) to inhibit the protein synthesis and bioluminescence was recorded for 18 h. […]

Consider `Cc1c(C(=O)N2CCc3ccccc32)oc2ccc3c(c12)C(=O)CC(C)(c1ccc(Cl)cc1)O3` (centres unmarked) [FORMULA I, 11-(4-chlorophenyl)-4-(2,3-dihydro-1H-indole-1-carbonyl)-3,11-dimethyl-5,10,dioxatricyclo[7.4.0.0,2,6,]trideca-1,3,6,8-tetraen-13-one], for which the “Per2 mRNA level in liver” value in the data set on Per2 is on record as “significantly increased; also recorded: increased the mRNA level of Per2”. In the data set with U2-OS cells, the “toxicity on U2-OS cells” value was “no effect on the stability of LUC and any toxic effect”.
